These are literature values, as cited in patent US6004532A, “Formulation for Tin-^117m /diethylenetriaminepentaacetic acids” (Brookhaven Science Associates, priority 1998, dated 1999).

The subject of one data set is bone marrow. The settings on record: for contamination and radiation cystitis risk: therapeutic doses.

For the molecule `O=[32P](O)(O)O` [^32 P orthophosphate], the “onset of pain relief” value in the data set on bone pain (pretreatment with androgen, after administration) is “five to fourteen”.
Turning to “^117m Sn (Sn^4+) diethylenetriaminepentaacetic acid [^117m Sn (Sn^4+) DTPA]”, the “contamination and radiation cystitis risk” value in the data set on bone marrow is “less risk of contamination and radiation cystitis”. Further, the “palliation of bone pain” value in the data set on bone pain (Phase II pilot study, Atkins et al. (1995)) is given as “palliation of bone pain”. Further, the “relief of bone pain in humans” value with bone pain (particular efficacy at about 9 to about 25 mCi per 70 kg, WO 95/29706) is “dose-dependent relief of bone pain”. Moreover, the “bone uptake and retention compared with ^32 P orthophosphate, ^153 Sm-EDTMP, ^186 Re-HEDP, and ^89 SrCl2” value (human, in vivo) is “higher bone uptake and retention”.
Consider `O=P([O-])(O)CN(CCN(CP(=O)([O-])O)CP(=O)(O)O)CP(=O)([O-])O.[153Sm+3]` [^153 Sm-EDTMP, ^153 Sm ethylenediaminetetramethylenephosphonate], for which the myelosuppression entry in the data set on bone marrow (human, in vivo) is recorded as “Reversible myelosuppression”. Besides, in the data set with bone marrow, the “contamination and radiation cystitis risk” value is “creating contamination risks and potentially causing radiation cystitis”. Besides, in the data set on bone pain (human, in vivo), the “duration of pain relief” value was “four to forty”, the “onset of clinical benefit / pain relief” value is on record as “two” and the “onset of clinical benefit / symptom relief (frequently)” value was not above 48 h. Moreover, the “urinary excretion of radioactivity” value (therapeutic doses 35 to 210 mCi) was “large amounts of radioactivity can be excreted in the patient's urine”.
